Test results reported in patent US20250235543A1, “MODIFIED PROTEINS AND PROTEIN DEGRADERS” (Cullgen (Shanghai), Inc., priority 2021, published 2025).

How the values were obtained:
DDB1 [1] = target: T1, DDB1 (Homo sapiens, UniProt Q16531, D705G/DEL396-460/DEL463-701/I704S/T703N); experiment: SPR binding assay to immobilized DDB1ΔBPB; conditions: binding affinities to DDB1
T1 construct: His6 (N, cleaved yes); TEV protease cleavage site (N, cleaved yes); made in house; host or cells: SF9 insect cells, Bac-to-Bac baculovirus, pFastBacHTB vector
T1 sequence (Q16531 other isoform, or with tags, fused parts or gaps DEL396-460/DEL463-701/T703N/I704S/D705G): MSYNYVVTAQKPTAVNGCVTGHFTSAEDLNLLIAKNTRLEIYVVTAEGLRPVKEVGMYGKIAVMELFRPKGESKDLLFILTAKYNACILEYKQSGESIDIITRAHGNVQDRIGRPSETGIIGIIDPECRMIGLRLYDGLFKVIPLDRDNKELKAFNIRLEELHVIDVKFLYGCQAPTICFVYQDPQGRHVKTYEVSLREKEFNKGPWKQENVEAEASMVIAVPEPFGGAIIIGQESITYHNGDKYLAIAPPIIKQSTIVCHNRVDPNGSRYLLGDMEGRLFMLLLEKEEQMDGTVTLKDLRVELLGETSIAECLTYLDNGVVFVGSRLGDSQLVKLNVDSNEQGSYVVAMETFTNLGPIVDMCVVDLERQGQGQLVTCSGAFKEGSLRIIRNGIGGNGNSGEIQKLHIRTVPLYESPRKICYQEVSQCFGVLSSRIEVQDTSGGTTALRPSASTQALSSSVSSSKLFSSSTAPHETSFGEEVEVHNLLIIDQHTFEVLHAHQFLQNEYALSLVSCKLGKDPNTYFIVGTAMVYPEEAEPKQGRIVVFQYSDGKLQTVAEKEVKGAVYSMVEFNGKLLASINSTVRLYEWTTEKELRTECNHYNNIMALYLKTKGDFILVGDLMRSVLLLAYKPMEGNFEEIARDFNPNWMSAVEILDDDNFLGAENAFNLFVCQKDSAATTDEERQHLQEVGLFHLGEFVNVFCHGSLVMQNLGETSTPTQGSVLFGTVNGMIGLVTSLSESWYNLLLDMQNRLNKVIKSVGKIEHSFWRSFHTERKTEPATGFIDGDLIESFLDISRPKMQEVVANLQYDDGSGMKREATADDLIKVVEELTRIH
In short: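 Untagged Sf9-expressed DDB1ΔBPB (BPB domain aa 396-705 replaced by GNGNSG linker) amine-coupled to CM5 chip at 10,000-12,000 RU; 25° C, HBS-EP pH 7.4 with 5% DMSO. Compounds injected multi-cycle at 100 μM-3.125 μM (6-point two-fold); double-referenced, solvent-corrected data fit to steady-state model for Kd.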

[2] = system: cyclin D1, cyclin D2, cyclin D3, CDK4 and CDK6; experiment: Immunoblotting of cyclin D and CDK4/6 protein levels in Calu-1 cells; assay type: cell-based; conditions: for cyclin D degradation after pretreatment with MG-132, MLN4924 or TAK-243: 2 hours pre-treatment, then 500 nM CPD-002, 500 nM CPD-004 or 100 nM CPD-031 for 4 h or 2 h; for time course of cyclin D1, cyclin D2 and cyclin D3 protein level reduction: CPD-002 at 500 nM, CPD-031 at 100 nM; for cyclin D1, cyclin D2, cyclin D3, CDK4 and CDK6 protein levels: indicated concentrations, 16 hours
Protocol: Calu-1 (FIG. 2A) or BT-549 (FIG. 2B) cells were treated with CPD-002, CPD-004, or palbociclib at indicated concentrations for 16 hours.
Calu-1 cells were treated with CPD-031 at indicated concentrations for 16 hours.
Calu-1 cells were treated with CPD-002 or CPD-031 at 500 nM or 100 nM, respectively for indicated period of time.
Calu-1 cells were pre-treated with DMSO, 20 μM MG-132 (MG), 5 μM MLN4924 (MLN) or 1 μM TAK-243 (TAK) for 2 hours, and subsequently incubated with 500 nM CPD-002, 500 nM CPD-004, or 100 nM CPD-031 for another 4 h or 2 h prior to immunoblotting (FIG. 5A-5B).
Calu-1 cells were treated with a dose range of negative control compounds CPD-042 or CPD-049 for 16 hours (FIG. 6A-6B).
Calu-1 cells were treated with reference compounds CP-10 or BSJ-03-123 at indicated concentrations for 8 hours.
Cultured cells were washed with cold PBS once and lysed in cold RIPA buffer supplemented with protease inhibitors and phosphatase inhibitors (Beyotime Biotechnology). The solutions were then incubated at 4° C. for 30 min with gentle agitation to fully lysed cells. Cell lysates were centrifuged at 13,000 rpm for 10 min at 4° C. and pellets were discarded. Total protein concentrations in the lysates were determined following BCA assays (Beyotime Biotechnology). Cell lysates were mixed with Laemmli loading buffer and heated at 99° C. for 5 min. Proteins were resolved on SDS-PAGE and visualized using Western ECL Substrate kits on a ChemiDoc MP Imaging system (Bio-Rad). Protein bands were quantitated using the Image Lab software provided by Bio-Rad.

DDB1 [3] = target: T1, DDB1; experiment: Surface plasmon resonance (SPR) binding of heterobifunctional compounds to DDB1; conditions: purified DDB1ΔBPB immobilized on CM5 chip, multi-cycle kinetic format, steady state model, read-out: binding affinities (Kd) to DDB1
Protocol: To determine whether the addition of linkers and target binders to the DDB1 ligands affected the binding to DDB1 E3 ligase, the binding affinities of heterobifunctional compounds to DDB1 was evaluated using a surface plasmon resonance (SPR) assay. Purified DDB1ΔBPB proteins were immobilized on a CM5 sensor chip and a dose range of compound solutions were injected in multi-cycle kinetic format. Data was fit to steady state model and gave equivalent dissociation constants (Kd).

cyclin D1 = experiment: Immunoblot of cyclin D1 in parental or DDB1 knockout Hs578T cells; assay type: cell-based; conditions: parental vs DDB1 knockout Hs578T cells, 4 hours
Protocol: FIG. 5 show immunoblots of cyclin D1, cyclin D2 and cyclin D3 proteins expressed by Calu-1 cells after treatment with heterobifunctional compounds CPD-002 and CPD-004 (A), or CPD-031 (B) in the presence or absence of MLN4924 (MLN), MG-132 (MG), or TAK-243 (TAK), and immunoblots of cyclin D1 proteins expressed in parental or DDB1 knockout Hs578T cells after treatment with heterobifunctional compound CPD-031 at indicated concentrations for 4 hours (C).
The heterobifunctional compound-mediated degradation was dependent on the ubiquitin-proteasome system and cullin E3 ligase. […] In addition, DDB1 E3 ligase was critical for the degrader-induced cyclin D downregulation. Depletion of DDB1 using CRISPR-Cas9 technology attenuated the cyclin D degradation induced by CPD-031 (FIG. 5C).

SMILES	Kd (DDB1 [1])	cyclin D degradation after pretreatment with MG-132, MLN4924 or TAK-243 [2]	time course of cyclin D1, cyclin D2 and cyclin D3 protein level reduction [2]	cyclin D1, cyclin D2, cyclin D3, CDK4 and CDK6 protein levels [2]	Kd (DDB1 [3])	cyclin D degradation after depletion of DDB1 (CRISPR-Cas9) (cyclin D1)
CC(=O)c1c(C)c2cnc(Nc3ccc(N4CCN(CC(=O)NCCOCCOCCOCCOCCOCCNc5ccc(C(=O)Nc6ncc(C)s6)c(C)c5)CC4)cn3)nc2n(C2CCCC2)c1=O [CPD-002, 4-((1-(4-(6-((6-Acetyl-8-cyclopentyl-5-methyl-7-oxo-7,8-dihydropyrido[2,3-d]pyrimidin-2-yl)amino)pyridin-3-yl)piperazin-1-yl)-2-oxo-6,9,12,15,18-pentaoxa-3-azaicosan-20-yl)amino)-2-methyl-N-(5-methylthiazol-2-yl)benzamide]	20 to 50 µM	diminished the cyclin D degradation effect	significantly reduced as early as one hour following treatment	reduced cyclin D1, cyclin D2, cyclin D3, CDK4 and CDK6 protein levels in a concentration-dependent manner	–	–
CC(=O)c1c(C)c2cnc(Nc3ccc(N4CCN(CC(=O)NCCOCCOCCOCCOCCOCCNc5ccc(C(=O)Nc6nc(C)c(C)s6)c(C)c5)CC4)cn3)nc2n(C2CCCC2)c1=O [CPD-031, 4-((1-(4-(6-((6-Acetyl-8-cyclopentyl-5-methyl-7-oxo-7,8-dihydropyrido[2,3-d]pyrimidin-2-yl)amino)pyridin-3-yl)piperazin-1-yl)-2-oxo-6,9,12,15,18-pentaoxa-3-azaicosan-20-yl)amino)-N-(4,5-dimethylthiazol-2-yl)-2-methylbenzamide]	< 20 µM	diminished the cyclin D degradation effect	significantly reduced as early as one hour following treatment	downregulated the protein levels of cyclin D1, cyclin D2, cyclin D3, CDK4, CDK6, and downstream phosphorylated Rb in a concentration-dependent manner	5.7 µM	attenuated
